System: PDC 899932-113-R3-J6 complex spheroid viability
Assay: Anticancer human tumor 899932-113-R3-J6-PDC patient-derived melanoma cell line growth inhibition [RAS]
Details: for IC50: curve of first compound; for viability, T/C: stronger effect = lower value
How it was run: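 Multi-cell-type spheroids: tumor cells plus HUVEC endothelial cells and mesenchymal stem cells. RAS-pathway inhibitors were combined with targeted agents, each dosed in half-log steps down from clinical Cmax, or from 10 microM when Cmax was unknown.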

[1] = second compound 0.00316 µM, first compound 0.0316 µM
[2] = second compound 0.00316 µM, first compound 0.1 µM
[3] = second compound 0.00316 µM, first compound 0.316 µM
[4] = second compound 0.00316 µM, first compound 1 µM
[5] = second compound 0.00316 µM, first compound 3.16 µM
[6] = second compound 0.00316 µM, first compound 10 µM
[7] = second compound 0.01 µM, first compound 0.0316 µM
[8] = second compound 0.01 µM, first compound 0.1 µM
[9] = second compound 0.01 µM, first compound 0.316 µM
[10] = second compound 0.01 µM, first compound 1 µM
[11] = second compound 0.01 µM, first compound 3.16 µM
[12] = second compound 0.01 µM, first compound 10 µM
[13] = second compound 0.0316 µM, first compound 0.0316 µM
[14] = second compound 0.0316 µM, first compound 0.1 µM
[15] = second compound 0.0316 µM, first compound 0.316 µM
[16] = second compound 0.0316 µM, first compound 1 µM
[17] = second compound 0.0316 µM, first compound 3.16 µM
[18] = second compound 0.0316 µM, first compound 10 µM
[19] = second compound 0.1 µM, first compound 0.0316 µM
[20] = second compound 0.1 µM, first compound 0.1 µM
[21] = second compound 0.1 µM, first compound 0.316 µM
[22] = second compound 0.1 µM, first compound 1 µM
[23] = second compound 0.1 µM, first compound 3.16 µM
[24] = second compound 0.1 µM, first compound 10 µM
[25] = second compound 0.316 µM, first compound 0.0316 µM
[26] = second compound 0.316 µM, first compound 0.1 µM
[27] = second compound 0.316 µM, first compound 0.316 µM
[28] = second compound 0.316 µM, first compound 1 µM
[29] = second compound 0.316 µM, first compound 3.16 µM
[30] = second compound 0.316 µM, first compound 10 µM
[31] = second compound 1 µM, first compound 0.0316 µM
[32] = second compound 1 µM, first compound 0.1 µM
[33] = second compound 1 µM, first compound 0.316 µM
[34] = second compound 1 µM, first compound 1 µM
[35] = second compound 1 µM, first compound 3.16 µM
[36] = second compound 1 µM, first compound 10 µM
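Throughout, for viability, T/C: spheroids exposed to agents for seven days before readout; 100% = DMSO vehicle control wells.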

CCC(CC)c1cc(NC2CCC(N)C2)n2nccc2n1 (stereo unspecified) + C=CC(=O)N1CCN(c2nc(OCC3CCCN3C)nc3c(F)c(-c4nc(N)cc(C)c4C(F)(F)F)c(Cl)cc23)C(C)C1
IC50 (second compound 0.00316 µM): 1.54 µM | IC50 (second compound 0.01 µM): 1.72 µM | IC50 (second compound 0.0316 µM): 1.68 µM | IC50 (second compound 0.1 µM): 1.73 µM | IC50 (second compound 0.316 µM): 1.72 µM | IC50 (second compound 1 µM): 1.61 µM | viability, T/C [1]: 101% | viability, T/C [2]: 96.1% | viability, T/C [3]: 105% | viability, T/C [4]: 79.9% | viability, T/C [5]: 0.74% | viability, T/C [6]: 0.24% | viability, T/C [7]: 107% | viability, T/C [8]: 98.1% | viability, T/C [9]: 98.1% | viability, T/C [10]: 93.9% | viability, T/C [11]: 0.74% | viability, T/C [12]: 0.62% | viability, T/C [13]: 116% | viability, T/C [14]: 105% | viability, T/C [15]: 99% | viability, T/C [16]: 90% | viability, T/C [17]: 0.75% | viability, T/C [18]: 0.23% | viability, T/C [19]: 106% | viability, T/C [20]: 111% | viability, T/C [21]: 94.1% | viability, T/C [22]: 94.1% | viability, T/C [23]: 0.78% | viability, T/C [24]: 1.07% | viability, T/C [25]: 96% | viability, T/C [26]: 99.3% | viability, T/C [27]: 102% | viability, T/C [28]: 93.9% | viability, T/C [29]: 0.72% | viability, T/C [30]: 0.84% | viability, T/C [31]: 109% | viability, T/C [32]: 103% | viability, T/C [33]: 98.2% | viability, T/C [34]: 84.8% | viability, T/C [35]: 0.86% | viability, T/C [36]: 0.27%

Cc1nc(N2CCC3(CC2)COC(C)C3N)c(CO)nc1Sc1ccnc(N)c1Cl (stereo unspecified) + C=CC(=O)N1CCN(c2nc(OCC3CCCN3C)nc3c(F)c(-c4nc(N)cc(C)c4C(F)(F)F)c(Cl)cc23)C(C)C1
IC50 (second compound 0.00316 µM): > 10 µM | IC50 (second compound 0.01 µM): > 10 µM | IC50 (second compound 0.0316 µM): > 10 µM | IC50 (second compound 0.1 µM): > 10 µM | IC50 (second compound 0.316 µM): > 10 µM | IC50 (second compound 1 µM): > 10 µM | viability, T/C [1]: 110% | viability, T/C [2]: 96.4% | viability, T/C [3]: 102% | viability, T/C [4]: 108% | viability, T/C [5]: 115% | viability, T/C [6]: 127% | viability, T/C [7]: 106% | viability, T/C [8]: 109% | viability, T/C [9]: 113% | viability, T/C [10]: 107% | viability, T/C [11]: 119% | viability, T/C [12]: 118% | viability, T/C [13]: 99.7% | viability, T/C [14]: 98.5% | viability, T/C [15]: 117% | viability, T/C [16]: 108% | viability, T/C [17]: 120% | viability, T/C [18]: 126% | viability, T/C [19]: 99.5% | viability, T/C [20]: 108% | viability, T/C [21]: 107% | viability, T/C [22]: 113% | viability, T/C [23]: 120% | viability, T/C [24]: 124% | viability, T/C [25]: 126% | viability, T/C [26]: 111% | viability, T/C [27]: 108% | viability, T/C [28]: 106% | viability, T/C [29]: 108% | viability, T/C [30]: 110% | viability, T/C [31]: 113% | viability, T/C [32]: 106% | viability, T/C [33]: 114% | viability, T/C [34]: 116% | viability, T/C [35]: 110% | viability, T/C [36]: 114%

NC1c2ccccc2OC12CCN(c1cnc3c(N4CCCc5ncccc54)n[nH]c3n1)CC2 (stereo unspecified) + C=CC(=O)N1CCN(c2nc(OCC3CCCN3C)nc3c(F)c(-c4nc(N)cc(C)c4C(F)(F)F)c(Cl)cc23)C(C)C1
IC50 (second compound 0.00316 µM): > 10 µM | IC50 (second compound 0.01 µM): > 10 µM | IC50 (second compound 0.0316 µM): > 10 µM | IC50 (second compound 0.1 µM): > 10 µM | IC50 (second compound 0.316 µM): > 10 µM | IC50 (second compound 1 µM): > 10 µM | viability, T/C [1]: 113% | viability, T/C [2]: 107% | viability, T/C [3]: 114% | viability, T/C [4]: 113% | viability, T/C [5]: 108% | viability, T/C [6]: 89.9% | viability, T/C [7]: 108% | viability, T/C [8]: 104% | viability, T/C [9]: 115% | viability, T/C [10]: 102% | viability, T/C [11]: 115% | viability, T/C [12]: 106% | viability, T/C [13]: 116% | viability, T/C [14]: 107% | viability, T/C [15]: 115% | viability, T/C [16]: 125% | viability, T/C [17]: 121% | viability, T/C [18]: 99.7% | viability, T/C [19]: 107% | viability, T/C [20]: 106% | viability, T/C [21]: 114% | viability, T/C [22]: 114% | viability, T/C [23]: 102% | viability, T/C [24]: 104% | viability, T/C [25]: 110% | viability, T/C [26]: 116% | viability, T/C [27]: 112% | viability, T/C [28]: 111% | viability, T/C [29]: 115% | viability, T/C [30]: 97.1% | viability, T/C [31]: 114% | viability, T/C [32]: 105% | viability, T/C [33]: 119% | viability, T/C [34]: 113% | viability, T/C [35]: 112% | viability, T/C [36]: 86.1%

Source: PubChem BioAssay AID2060895 (Molecular Pharmacology Branch, DTP, NCI, 2025)
